In PubChem BioAssay (NCI) one finds GI50 and TGI data, which are given here for 18 molecules.

Each structure is given as a SMILES string.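 Method: 48-hour compound exposure of cells in 96-well plates, five concentrations, linear interpolation of endpoints. Abbreviation: GI50, concentration required for 50% inhibition of growth. The concentration for full growth arrest is given as TGI.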

What all share (experiment): growth of human tumour cells (NCI), 48 h
In experiment [1] the test system is EKVX NSCLC.
The subject of experiment [2] is MDA-MB-231 breast.
Experiment [3] deals with OVCAR-8 ovarian.
Experiment [4] deals with PC-3 prostate.
Experiment [5] has as its system CCRF-CEM leukemia.
Experiment [6] deals with LOX IMVI melanoma.
Experiment [7] deals with M14 melanoma.
Experiment [8] concerns OVCAR-5 ovarian.
Experiment [9] concerns MDA-MB-435.
Experiment [10] deals with SK-MEL-28 melanoma.

In the case of `COc1ccc2c(c1OC)-c1c(c3ccc([N+](=O)[O-])cc3c(=O)n1CCCBr)C2=O`, the GI50 was above 100 µM in experiment [1]; 55 µM in experiment [2]; above 100 µM in experiment [3]; 18.1 µM in [4]; 16.9 µM in experiment [5]; 12.7 µM in experiment [6]. Also, the GI50 in experiment [7] was 27.2 µM; in [8], above 100 µM. In addition, the TGI is above 100 µM in experiment [1]; above 100 µM in [2]; above 100 µM in experiment [3]; above 100 µM in experiment [4]; 80.9 µM in experiment [5]; 45.5 µM in experiment [6]. In addition, the TGI in [7] and in experiment [8] was above 100 µM throughout.

`COC(=O)C(CCC(=O)CCl)N1C(=O)c2ccccc2C1=O` (configuration not stated): the TGI in [9] stood at 22 µM; in experiment [1], 35.3 µM; in experiment [2], 28.7 µM; in [3], 19 µM; in experiment [10], 23.5 µM; in experiment [4] it was 26.5 µM. The TGI in experiment [5] is 6.34 µM; in [6], 4.02 µM; in [7], 14.8 µM; in experiment [8], 28.4 µM.

Consider `O=c1c2cc(-c3ccccc3)sc2ncn1Cc1ccc(Cl)c(Cl)c1`, for which the GI50 in experiment [9] is 40.6 µM; in [1], 16.3 µM; in [2] it was 3.92 µM; in [3] it was 18.6 µM; in experiment [10], 45.5 µM; in experiment [4], 19.1 µM. The GI50 was 51.9 µM in experiment [6], 25.7 µM in experiment [7] and 5.46 µM in experiment [8]. The TGI in experiment [9] was above 100 µM; in experiment [1] it was above 100 µM; in experiment [2] it was 25 µM; in experiment [3], above 100 µM; in [10], above 100 µM; in experiment [4] it was 55.1 µM. For the same molecule, the TGI in experiment [6], in experiment [7] and in experiment [8] was above 100 µM in each case.

With `CNNC(=N\S(=O)(=O)c1cc(C)c(Cl)cc1SCc1ccccc1)/N=C/c1ccc([N+](=O)[O-])s1`, the GI50 in experiment [9] is 18.5 µM; in experiment [1], above 29.6 µM; in [2] it was above 56.7 µM; in experiment [3], above 100 µM; in experiment [10], above 100 µM; in [4], above 100 µM. Also, the GI50 in experiment [5] is above 100 µM; in experiment [6], above 77.2 µM; in [7] it was 9.97 µM; in experiment [8] it was above 100 µM. For the same molecule, the TGI in [9], in [1], in experiment [2], in experiment [3], in experiment [10] and in [4] was above 100 µM throughout. In addition, the TGI in experiment [5] is above 100 µM; in experiment [6] it was above 100 µM; in experiment [7] it was above 78.5 µM; in [8], above 100 µM.

Take `CCCCCCCCOC(=O)c1c(C)[nH]c(/C=C2\N=C(c3ccc[nH]3)C=C2OC)c1C`: the GI50 in [9] was 0.0226 µM; in [1], 0.12 µM; in experiment [2], below 0.0182 µM; in [3], 0.0459 µM; in experiment [10] it was 0.25 µM; in [4], 0.0467 µM. Besides, the GI50 in experiment [5] is below 0.0178 µM; in [6], below 0.0134 µM; in experiment [7], 0.0351 µM; in experiment [8], 0.0943 µM. Moreover, the TGI was 1.41 µM in [9]; 9.15 µM in experiment [1]; 0.517 µM in [2]; 13.8 µM in experiment [3]; 6.14 µM in experiment [10]; above 34.8 µM in experiment [4]. In addition, the TGI in experiment [5] was above 27.4 µM; in experiment [6], below 0.02 µM; in experiment [7] it was 2.01 µM; in experiment [8] it was 3.45 µM.

For `NC(=O)[C@@H](CC1CC1)[C@@H](CCC(F)(F)F)C(=O)N[C@H]1N=C(c2ccccc2)c2cccc(F)c2NC1=O`, the GI50 was 66.7 µM in experiment [9]; above 100 µM in experiment [1]; 18.8 µM in experiment [2]; above 100 µM in experiment [3]; 19.7 µM in [10]; 69 µM in [4]. Also, the GI50 is 48 µM in [6], above 100 µM in experiment [7] and above 100 µM in [8]. Further, the TGI was above 100 µM in [9]; above 100 µM in experiment [1]; 42.7 µM in experiment [2]; above 100 µM in experiment [3]; 52.4 µM in experiment [10]; above 100 µM in [4]. For the same molecule, the TGI in experiment [6], in [7] and in [8] was above 100 µM each time.

For `CSc1ncc(Br)c(Sc2nc(N)nc3nc[nH]c23)n1`, the GI50 in [9] was 2.5 µM; in experiment [1], 3.07 µM; in [2], 2.39 µM; in [3], 3.78 µM; in experiment [10], 6.63 µM; in experiment [5], 2.38 µM. In addition, the GI50 is 0.816 µM in experiment [6], 2.78 µM in experiment [7] and 4.98 µM in [8]. Also, the TGI in experiment [9] is above 100 µM; in [1], 55.1 µM; in [2] it was 58.3 µM; in experiment [3], above 100 µM; in [10] it was 53 µM; in experiment [5], 9.3 µM. For the same molecule, the TGI in experiment [6] was 17.7 µM; in experiment [7] it was above 100 µM; in experiment [8] it was above 100 µM.

With `CN(Cc1ccc(C(F)(F)F)cc1)CC(O)C(=O)Nc1ccc(Cl)cc1` (configuration not stated), the GI50 in [9] is 1.52 µM; in [1], 1.18 µM; in experiment [2], 1.34 µM; in experiment [3] it was 1.8 µM; in experiment [10], 1.62 µM; in experiment [4] it was 1.77 µM. For the same molecule, the GI50 was 1.05 µM in experiment [6], 1.52 µM in experiment [7] and 1.43 µM in experiment [8]. The TGI in [9] was 3 µM; in experiment [1], 2.51 µM; in experiment [2], 2.73 µM; in experiment [3] it was 3.5 µM; in experiment [10] it was 3.16 µM; in experiment [4], 3.21 µM. Further, the values for the TGI in experiment [6], in experiment [7] and in experiment [8] were 2.3 µM, 3.05 µM and 2.86 µM, respectively.

Regarding `NCCCCC1NC(=O)C(CC(=O)O)NC(=O)CNC(=O)C(CCCN=C(N)N)NC(=O)C(N)CSSCC(C(=O)O)NC(=O)C(CC(=O)O)NC(=O)C2CCCN2C(=O)CNC1=O` (configuration not stated), the GI50 in [9], in [1], in experiment [2], in experiment [3], in experiment [10] and in [6] was above 100 µM throughout. Further, the GI50 in [7] and in [8] was above 100 µM in each case. The TGI in [9], in experiment [1], in experiment [2], in [3], in [10] and in experiment [6] was above 100 µM throughout. Also, the TGI in experiment [7] and in experiment [8] was above 100 µM each time.

As for `CCN(Cc1cc(F)ccc1F)c1ccc(CO)c(Cl)c1`, the GI50 was 12.8 µM in experiment [9]; 13.6 µM in experiment [2]; 13 µM in experiment [3]; 13.8 µM in experiment [10]; 13.4 µM in experiment [4]; 22.5 µM in [5]. Besides, the figures for the GI50 in [6], in experiment [7] and in experiment [8] were 14.6 µM, 15.5 µM and 0.0502 µM, respectively. The TGI stood at 30 µM in experiment [9]; 29.1 µM in [2]; 36.2 µM in [3]; 27.5 µM in [10]; 32.4 µM in experiment [4]; 91.5 µM in experiment [5]. For the same molecule, the TGI in [6] is 29.2 µM; in experiment [7], 32.5 µM; in experiment [8], 0.228 µM.

Turning to `CCOc1ccc(/C(C=O)=C(\Cl)c2ccc(OC)cc2)cc1`, the TGI in [9], in experiment [1], in experiment [2], in experiment [3], in experiment [10] and in experiment [5] was above 100 µM each time. In addition, the TGI in experiment [6], in [7] and in experiment [8] was above 100 µM throughout.

As for `Cc1cc(C)c2c(n1)sc1c(N)ncnc12`, the GI50 in experiment [9] was above 25 µM; in experiment [2] it was above 24 µM; in experiment [3], above 25 µM; in experiment [10] it was above 25 µM; in [4], above 25 µM; in [5], above 25 µM. For the same molecule, the GI50 in experiment [6], in [7] and in experiment [8] was above 25 µM each time. Further, the TGI in experiment [9], in experiment [2], in experiment [3], in experiment [10], in experiment [4] and in experiment [5] was above 25 µM in each case. The TGI in [6], in experiment [7] and in experiment [8] was above 25 µM each time.

For the molecule `CCOC(=O)c1c(C)n(Cc2ccc(Cl)cc2Cl)c2c1cc1oc(=O)c(=O)n3cnc2c13`, the GI50 in [9] is 16.3 µM; in experiment [1] it was 23.2 µM; in experiment [2] it was 15.7 µM; in experiment [3], 7.68 µM; in experiment [10], 14.2 µM; in [5], 6.31 µM. Moreover, the GI50 in [6] is 14.2 µM; in [7] it was 22.3 µM. Moreover, the TGI in experiment [9] was determined as 30.9 µM; in experiment [1], 43.3 µM; in experiment [2], 31.4 µM; in [3], 25.8 µM; in experiment [10] it was 31.7 µM; in experiment [5], 20.4 µM. Also, the TGI was 27.3 µM in [6] and 41.6 µM in [7].

In the case of `Cc1cccc2c1c1ccc3c(c1n2C)C(=O)C=CC3=O`, the TGI was found to be 38.2 µM in [1]; 32.1 µM in experiment [3]; 24.4 µM in experiment [10]; 3.25 µM in experiment [5]; 6.58 µM in experiment [6]; 17.9 µM in experiment [7]. In experiment [8], this molecule registered a TGI of 29.5 µM.

In the case of `Cn1cccc1-c1cc(-c2ccccc2)[nH]c(=O)c1C#N`, the GI50 is above 100 µM in experiment [9]; 37.3 µM in experiment [1]; above 100 µM in [2]; above 100 µM in experiment [3]; above 100 µM in experiment [10]; above 100 µM in experiment [4]. The GI50 in [5], in experiment [6] and in [8] was above 100 µM each time. Also, the TGI in experiment [9], in experiment [1], in [2], in experiment [3], in [10] and in experiment [4] was above 100 µM each time. In addition, the TGI in experiment [5], in [6] and in experiment [8] was above 100 µM in each case.

Consider `Cc1ccc(S(=O)(=O)N=NC=C2c3ccccc3N(O)c3ccccc32)cc1`, for which the TGI in experiment [1] amounted to 40 µM; in experiment [3], 14.7 µM; in experiment [10], 14.5 µM; in experiment [5] it was 2.93 µM; in experiment [6] it was 2.76 µM; in experiment [7], 23.2 µM. Besides, the TGI in experiment [8] is 27.8 µM.

Take `O=c1nc(-c2ccccc2)cc(CC(O)c2ccc(Cl)c(Cl)c2)[nH]1` (configuration not stated): the TGI in [1], in [3], in [10], in experiment [5], in [6] and in experiment [7] was above 100 µM in each case. The molecule also gave a TGI in [8] of 82 µM.

For the molecule `COc1ccc(Nc2nc3ccccc3c3occc23)cc1`, the GI50 in [9] was 1.63 µM; in experiment [1] it was 9.96 µM; in experiment [2], 1.34 µM; in experiment [3], 8.51 µM; in experiment [10] it was 7.19 µM; in experiment [4], 12.9 µM. Moreover, the figures for the GI50 in experiment [6], in experiment [7] and in experiment [8] were 0.649 µM, 9.72 µM and 7.95 µM, respectively. The TGI in experiment [9] is 5.59 µM; in [1], above 50 µM; in [2], 10.3 µM; in [3], 22.7 µM; in experiment [10], 18.8 µM; in experiment [4], above 50 µM. Also, the TGI in experiment [6] is 5.32 µM; in experiment [7] it was 18.9 µM; in experiment [8], 16.6 µM.
